System: hangover symptoms
Assay: Testing of composition components on alcohol-induced (hangover) symptoms
Format: in vivo, human
Procedure: To test, various components of the compositions disclosed herein, individuals were selected to test the efficacy of various formulations. The scale employed during the testing of alcohol-induced symptoms was as follows: (a) no symptoms; (b) very mild symptoms; (c) mild symptoms; (d) moderate symptoms; (e) severe symptoms; and/or (f) very severe symptoms. […] The testing was carried out by a person of average size and build consuming standard alcoholic drinks (e.g., a beer) and the components below were consumed generally prior to consumption of alcohol. […]

[1] = man of average size, standard alcoholic drinks, taken prior to alcohol

O=C1c2c(O)cc(O)cc2O[C@H](c2cc(O)c(O)c(O)c2)[C@H]1O [DHM, dihydromyricetin]
alcohol-induced symptoms (3 drinks, 300 mg DHM (without DHM: very mild symptoms)): elimination of all symptoms
alcohol-induced symptoms (3 drinks, less than 300 mg DHM (without DHM: very mild symptoms)): no reduction of symptoms
alcohol-induced symptoms (6 drinks, 300 mg DHM (without DHM: moderate symptoms)): reduction to mild symptoms
alcohol-induced symptoms (6 drinks, 750 mg DHM (without DHM: moderate symptoms)): reduction to very mild symptoms
alcohol-induced symptoms (6 drinks, 1200 mg DHM (without DHM: moderate symptoms)): elimination of all symptoms
alcohol-induced symptoms (9 drinks, 300 mg DHM (without DHM: severe symptoms)): no reduction of symptoms
alcohol-induced symptoms (9 drinks, 750 mg DHM (without DHM: severe symptoms)): reduction to moderate symptoms
alcohol-induced symptoms (9 drinks, 1200 mg DHM (without DHM: severe symptoms)): reduction to mild symptoms
alcohol-induced symptoms (9 drinks, 1500 mg DHM (without DHM: severe symptoms)): reduction to very mild symptoms
alcohol-induced symptoms (9 drinks, 1850 mg DHM (without DHM: severe symptoms)): reduction of all symptoms with the sole exception of fatigue
elimination of all symptoms (12 and 15 drinks, all DHM doses tested): no dose of DHM, as tested, eliminated all symptoms
alcohol-induced symptoms (12 drinks, 750 mg DHM (without DHM: severe symptoms)): no reduction of symptoms
alcohol-induced symptoms (12 drinks, 1200 mg DHM (without DHM: severe symptoms)): no reduction of symptoms
alcohol-induced symptoms (12 drinks, 1500 mg DHM (without DHM: severe symptoms)): reduction to moderate symptoms
alcohol-induced symptoms (12 drinks, 1850 mg DHM (1500 mg gave moderate symptoms)): no further reduction in symptoms
alcohol-induced symptoms (12 drinks, 2400 mg DHM (1500 mg gave moderate symptoms)): no further reduction in symptoms
alcohol-induced symptoms (15 drinks, 1500 mg DHM (without DHM: very severe symptoms)): no reduction of symptoms
alcohol-induced symptoms (15 drinks, 1850 mg DHM (without DHM: very severe symptoms)): reduction to severe symptoms
alcohol-induced symptoms (15 drinks, 2400 mg DHM (1850 mg gave severe symptoms)): no further reduction of symptoms
alcohol-induced symptoms (15 drinks, 3600 mg DHM (1850 mg gave severe symptoms)): no further reduction of symptoms
alcohol-induced symptoms (18 drinks, 1850 mg DHM (without DHM: very severe symptoms)): no reduction of symptoms
alcohol-induced symptoms (18 drinks, 2400 mg DHM (without DHM: very severe symptoms)): no reduction of symptoms
alcohol-induced symptoms (18 drinks, 3600 mg DHM (without DHM: very severe symptoms)): no reduction of symptoms
alcohol-induced symptoms (18 drinks, 5000 mg DHM (without DHM: very severe symptoms)): no reduction of symptoms
dosage above which no additional benefits were seen [1]: about 1850 mg
dosage at which benefits on hangover symptoms begin [1]: about 300 mg
